Patent US20240390295A1, “METHODS FOR TREATING DEPRESSION” (JANSSEN PHARMACEUTICA NV, priority 2020, published 2024)

Columns and labels:
[1] = test system: adult patients (aged 18-64 years) with TRD; assay: MOAA/S-defined sedation (score <5); assay type: in vivo, human
Protocol: For measuring treatment session induced sedation, one of skill in the art may use the Modified Observer's Assessment of Alertness/Sedation Scale (MOAA/S). […] For subjects with a score of 4, the assessment should be repeated every 15 minutes. And for subjects with a score of ≤3, the assessment should be repeated every 5 minutes until the score. In some embodiments, the results of the MOAA/S may be correlated to levels of sedation defined by the American Society of Anesthesiologists (ASA) continuum.
(§1) Vital signs, the Clinician-Administered Dissociative States Scale (CADSS), and the Modified Observer's Assessment of Alertness/Sedation (MOAA/S) were assessed at baseline and all treatment sessions (predose, and at 40 minutes, 1 hour [vital signs only unless spontaneously reported by the patient], and 1.5 hours postdose). Routine blood pressure (BP) readings were conducted at each treatment session, with elevations reported as AEs based on the clinician's judgement. The CADSS assessed treatment-emergent dissociative symptoms and consists of 23 questions, each coded on a 5-point scale (0=not at all, 1-mild, 2-moderate, 3=severe, 4-extreme), yielding a total score 0-92.11 A CADSS total score >4 indicated the presence of dissociative symptoms. The MOAA/S assessed treatment-emergent sedation: scores range from (=no response to painful stimulus to 5=readily responds to name spoken in normal tone. Any decrease in MOAA/s from pre-dose (score <5) indicated some degree of sedation. An abnormal elevation in BP was defined as systolic BP ≥180 mmHg and ≥20 mmHg higher than baseline and/or diastolic BP ≥105 mmHg and ≥15 mmHg greater than baseline.
(§2) This analysis included any treatment sessions in which patients received ESK (either open-label or blinded). The occurrence and severity of AEs were assessed within the following timeframes: Month 1 (Week 1 and Weeks 2-4), Month 2 (Weeks 5-8), Months 3-6 and Months 6-12. Severity of clinician-reported AEs were scored as 0 (no AE), 1 (mild), 2 (moderate), and 3 (severe). To examine AEs in individual patients over time, only patients who received at least one ESK dose in the following period were included in the analyses of each respective period. Thus, patient data were retained in (i) Week 1 if the patient received ≥1 ESK dose in Weeks 2-4, (ii) Weeks 2-4 if the patient received ≥1 ESK dose in Weeks 5-8, (iii) Weeks 5-8 if the patient received ≥1 ESK dose in Months 3-6, and (iv) Months 3-6 if the patient received ≥1 ESK dose in Months 6-12.

[2] = test system: adult patients (aged 18-64 years) with TRD; assay: Measure-based increased blood pressure (abnormal elevation in BP); assay type: in vivo, human
Protocol: as §1, §2

[3] = test system: adult patients (aged 18-64 years) with TRD; conditions: cited from earlier work
[4] = Months 3-6, overall rate for timeframe
[5] = Months 6-12, AE twice in Week 1
[6] = Months 6-12, overall rate for timeframe
[7] = Week 1, overall rate for timeframe
[8] = Weeks 2-4, overall rate for timeframe
[9] = Weeks 5-8, overall rate for timeframe

## CN[C@]1(c2ccccc2Cl)CCCCC1=O [esketamine, (S)-2-(2-chlorophenyl)-2-(methylamino)cyclohexanone]
[1]; Months 3-6, AE once in Week 1
  MOAA/S-defined sedation: 47.7%
[1]; Months 3-6, AE twice in Week 1
  MOAA/S-defined sedation: 74.5%
[1]; Months 3-6, No AE in Week 1
  MOAA/S-defined sedation: 23.8%
[1]; [4]
  MOAA/S-defined sedation: 37.5%
[1]; Months 6-12, AE once in Week 1
  MOAA/S-defined sedation: 38.3%
[1]; [5]
  MOAA/S-defined sedation: 51.8%
[1]; Months 6-12, No AE in Week 1
  MOAA/S-defined sedation: 18.8%
[1]; [6]
  MOAA/S-defined sedation: 28.4%
[1]; [7]
  MOAA/S-defined sedation: 38.1%
[1]; Weeks 2-4, AE once in Week 1
  MOAA/S-defined sedation: 65.7%
[1]; Weeks 2-4, AE twice in Week 1
  MOAA/S-defined sedation: 95.4%
[1]; Weeks 2-4, No AE in Week 1
  MOAA/S-defined sedation: 22.0%
[1]; [8]
  MOAA/S-defined sedation: 44.2%
[1]; Weeks 5-8, AE once in Week 1
  MOAA/S-defined sedation: 42.0%
[1]; Weeks 5-8, AE twice in Week 1
  MOAA/S-defined sedation: 81.4%
[1]; Weeks 5-8, No AE in Week 1
  MOAA/S-defined sedation: 15.8%
[1]; [9]
  MOAA/S-defined sedation: 33.1%
[1]; after Week 1 or Week 4, regardless of highest MOAA/S
  MOAA/S mean recurrence scores: 3.5-4.0
[1]; human, in vivo, other: intranasal
  MOAA/S mean recurrence score, single patient exception: 3.25
[1]; human, in vivo, other: intranasal, 1 week
  measure-based sedation not reported during Week 1, patients: 62%
[2]; Months 3-6, AE once in Week 1
  Measured-based increased blood pressure: 6.3%
[2]; Months 3-6, AE twice in Week 1
  Measured-based increased blood pressure: 33.3%
[2]; Months 3-6, No AE in Week 1
  Measured-based increased blood pressure: 2.4%
[2]; [4]
  Measured-based increased blood pressure: 2.7%
[2]; Months 6-12, AE once in Week 1
  Measured-based increased blood pressure: 6.3%
[2]; [5]
  Measured-based increased blood pressure: 0%
[2]; Months 6-12, No AE in Week 1
  Measured-based increased blood pressure: 3.1%
[2]; [6]
  Measured-based increased blood pressure: 3.2%
[2]; [7]
  Measured-based increased blood pressure: 3.6%
[2]; Weeks 2-4, AE once in Week 1
  Measured-based increased blood pressure: 35.7%
[2]; Weeks 2-4, AE twice in Week 1
  Measured-based increased blood pressure: 80.0%
[2]; Weeks 2-4, No AE in Week 1
  Measured-based increased blood pressure: 3.4%
[2]; [8]
  Measured-based increased blood pressure: 4.7%
[2]; Weeks 5-8, AE once in Week 1
  Measured-based increased blood pressure: 17.9%
[2]; Weeks 5-8, AE twice in Week 1
  Measured-based increased blood pressure: 60.0%
[2]; Weeks 5-8, No AE in Week 1
  Measured-based increased blood pressure: 2.6%
[2]; [9]
  Measured-based increased blood pressure: 3.4%
[3]; ESK plus OAD therapy
  incidence of dissociation, dizziness, nausea, sedation, vertigo: ≥ 5%
[3]; five most common treatment-emergent events
  incidence relative to placebo plus an OAD: ≥ 2 fold
